Test results reported in US8138168B1 (Takeda Pharmaceutical Company Limited, priority 2007, dated 2012).

target: T1, Recombinant human renin (Homo sapiens, UniProt P00797); test: In vitro enzymatic activity assay of renin inhibitors (fluorogenic peptide substrate); assay type: biochemical; settings: read-out: IC50 of Exemplified Compounds Against Renin
T1 construct: isolate the active form (residues 67-406); made in house; host or cells: FreeStyle 293-F cells (transient expression of pcDNA3.1(+)/hREN)
T1 sequence (P00797 67-406): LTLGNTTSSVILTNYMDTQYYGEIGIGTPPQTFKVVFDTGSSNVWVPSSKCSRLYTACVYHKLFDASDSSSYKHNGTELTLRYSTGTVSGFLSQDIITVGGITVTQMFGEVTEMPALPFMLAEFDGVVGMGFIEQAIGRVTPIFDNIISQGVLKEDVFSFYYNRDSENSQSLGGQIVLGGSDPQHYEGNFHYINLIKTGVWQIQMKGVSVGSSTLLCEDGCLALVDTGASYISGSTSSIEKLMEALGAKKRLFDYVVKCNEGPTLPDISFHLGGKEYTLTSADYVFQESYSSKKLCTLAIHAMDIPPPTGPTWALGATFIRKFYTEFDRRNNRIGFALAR
Procedure: Test compounds in varying concentrations may be reacted with recombinant human renin in the presence of substrate, e.g., QXL520-γ-Abu-[…](HiLyteFluo488)-Arg-OH (Anaspec, San Jose, Calif.). […] Inhibition constants (IC50) may be calculated by non-linear curve fitting of the compound concentrations and fluorescence intensities to the standard IC50 equation.
Solutions of test compounds in varying concentrations mM final concentration) are prepared in dimethyl sulfoxide (DMSO) and then diluted into assay buffer comprising 50 mM Hepes, 1 mM EDTA, 1 mM DTT, 0.1 mg/mL BSA, 0.01% Brij35, pH 7.4. Alternatively, the assay can be performed with a high BSA concentration, wherein the buffer contains an additional 2% BSA.
Recombinant human renin (3 nM final concentration) is added to the dilutions and pre-incubated with the compounds for 10 minutes at 37° C. […] After pre-incubation, the reaction is initiated with of substrate QXL520-γ-Abu-[…](HiLyteFluo488)-Arg-OH (Anaspec, San Jose, Calif.). The final DMSO in the assay is 5%. The total volume of the reaction mixture is 20 μL, which can be placed on Greiner 384-well small volume plates.
The fluorescence intensity is determined upon the addition of substrate and determined again after incubation at 37° C. for one hour. The fluorescence intensity of a blank (no inhibition) using vehicle alone is also determined. Renin activity is linearly proportional to the change in fluorescence observed (final-initial).

IC50 [nM] | Structure (SMILES)
100 to 1000 | CC(=O)NCCn1c([C@@H]2CCCN(C(=O)C[C@H](N)Cc3ccc(-c4ccc(N)nc4)cc3)C2)nc2ccccc21 [Compound 446, N-(2-(2-((R)-1-((R)-3-amino-4-(4-(6-aminopyridin-3-yl)phenyl)butanoyl)piperidin-3-yl)-1H-benzo[d]imidazol-1-yl)ethyl)acetamide]
100 to 1000 | Nc1ncc(-c2ccc(C[C@@H](N)CC(=O)N3CCC[C@@H](c4nc5ccccc5n4CCF)C3)cc2)cn1 [Compound 509, (R)-3-amino-4-(4-(2-aminopyrimidin-5-yl)phenyl)-1-((R)-3-(1-(2-fluoroethyl)-1H-benzo[d]imidazol-2-yl)piperidin-1-yl)butan-1-one]
100 to 1000 | COCCCn1c([C@@H]2CCCN(C(=O)C[C@H](N)CNC(=O)Nc3ccccc3-c3ccccc3)C2)nc2ccccc21 [Compound 291, 1-((S)-2-amino-4-((R)-3-(1-(3-methoxypropyl)-1H-benzo[d]imidazol-2-yl)piperidin-1-yl)-4-oxobutyl)-3-(biphenyl-2-yl)urea]
100 to 1000 | COCCCn1c([C@@H]2CCCN(C(=O)C[C@H](N)CNC(=O)c3ccc(C(=O)OC)cc3)C2)nc2ccccc21 [Compound 314, methyl 4-((S)-2-amino-4-((R)-3-(1-(3-methoxypropyl)-1H-benzo[d]imidazol-2-yl)piperidin-1-yl)-4-oxobutylcarbamoyl)benzoate]
100 to 1000 | COCCCn1c([C@@H]2CCCN(C(=O)[C@@H]3CN(C(=O)Nc4cccc(Cl)c4)C[C@H]3N)C2)nc2ccccc21 [Compound 378, (3S,4R)3-amino-N-(3-chlorophenyl)-4-((R)-3-(1-(3-methoxypropyl)-1H-benzo[d]imidazol-2-yl)piperidine-1-carbonyl)pyrrolidine-1-carboxamide]
100 to 1000 | COCCCn1c([C@@H]2CCCN(C(=O)[C@@H]3CN(S(=O)(=O)c4ccc5c(ccn5C)c4)C[C@H]3N)C2)nc2ccccc21 [Compound 360, ((3R,4S)-4-amino-1-(1-methyl-1H-indol-5-ylsulfonyl)pyrrolidin-3-yl)((R)-3-(1-(3-methoxypropyl)-1H-benzo[d]imidazol-2-yl)piperidin-1-yl)methanone]
100 to 1000 | COCCCn1c([C@@H]2CCCN(C(=O)C[C@@H](N)COc3nc4ccccc4[nH]3)C2)nc2ccccc21 [Compound 434, (R)-4-(1H-benzo[d]imidazol-2-yloxy)-3-amino-1-((R)-3-(1-(3-methoxypropyl)-1H-benzo[d]imidazol-2-yl)piperidin-1-yl)butan-1-one]
< 100 | CC(=O)NCCn1c([C@@H]2CCCN(C(=O)C[C@H](N)Cc3ccc(-c4ccc5c(c4)SCC(=O)O5)cc3)C2)nc2ccccc21 [Compound 464, N-(2-(2-((R)-1-((R)-3-amino-4-(4-(2-oxo-2,3-dihydrobenzo[b][1,4]oxathiin-6-yl)phenyl)butanoyl)piperidin-3-yl)-1H-benzo[d]imidazol-1-yl)ethyl)acetamide]

Second part, the molecule before the results:

Structure (SMILES) | IC50 [nM]
COCCCn1c(C2CCCN(C(=O)C[C@H](N)Cc3ccc(Cl)cc3)C2)nc2ccccc21 (stereo partly drawn) [Compound 24, (3R)-3-amino-4-(4-chlorophenyl)-1-(3-(1-(3-methoxypropyl)-1H-benzo[d]imidazol-2-yl)piperidin-1-yl)butan-1-one] | 100 to 1000
COCCCn1c([C@@H]2CCCN(C(=O)C[C@H](N)Cc3ccc(-c4ccc(NC(=O)C(C)(C)O)cc4)cc3)C2)nc2ccccc21 [Compound 199, N-(4′-((R)-2-amino-4-((R)-3-(1-(3-methoxypropyl)-1H-benzo[d]imidazol-2-yl)piperidin-1-yl)-4-oxobutyl)biphenyl-4-yl)-2-hydroxy-2-methylpropanamide] | < 100
N[C@@H](CC(=O)N1CCCC(c2nc3ccccc3[nH]2)C1)c1cccc(Br)c1 (stereo partly drawn) [Compound 41, (3S)-1-(3-(1H-benzo[d]imidazol-2-yl)piperidin-1-yl)-3-amino-3-(3-bromophenyl)propan-1-one] | > 1000
COCCCn1c([C@@H]2CCCN(C(=O)C[C@H](N)Cc3ccc(-c4ccc(C(=O)OC)cc4)cc3)C2)nc2ccccc21 [Compound 123, methyl 4′-((R)-2-amino-4-((R)-3-(1-(3-methoxypropyl)-1H-benzo[d]imidazol-2-yl)piperidin-1-yl)-4-oxobutyl)biphenyl-4-carboxylate] | < 100
COCCCn1c([C@@H]2CCCN(C(=O)C[C@H](N)Cc3ccc(-n4c(=O)oc5ccccc54)cc3)C2)nc2ccccc21 [Compound 211] | < 100
COCCCn1c([C@@H]2CCCN(C(=O)C[C@H](N)Cc3ccc(-c4ccnc(Cl)c4)cc3)C2)nc2ccccc21 [Compound 133, (R)-3-amino-4-(4-(2-chloropyridin-4-yl)phenyl)-1-((R)-3-(1-(3-methoxypropyl)-1H-benzo[d]imidazol-2-yl)piperidin-1-yl)butan-1-one] | < 100
COCCCn1c([C@@H]2CCCN(C(=O)C[C@H](N)Cc3ccc(-c4ccc(NC(N)=O)cc4)cc3)C2)nc2ccccc21 [Compound 172, 1-(4′-((R)-2-amino-4-((R)-3-(1-(3-methoxypropyl)-1H-benzo[d]imidazol-2-yl)piperidin-1-yl)-4-oxobutyl)biphenyl-4-yl)urea] | < 100
CCCc1ccccc1NC(=O)NC[C@@H](N)CC(=O)N1CCC[C@@H](c2nc3ccccc3n2CCCOC)C1 [Compound 286, 1-((S)-2-amino-4-((R)-3-(1-(3-methoxypropyl)-1H-benzo[d]imidazol-2-yl)piperidin-1-yl)-4-oxobutyl)-3-(2-propylphenyl)urea] | 100 to 1000
COCCCn1c([C@@H]2CCCN(C(=O)C[C@H](N)Cc3ccc(-c4ccccc4F)cc3)C2)nc2ccccc21 [Compound 160, (R)-3-amino-4-(2′-fluorobiphenyl-4-yl)-1-((R)-3-(1-(3-methoxypropyl)-1H-benzo[d]imidazol-2-yl)piperidin-1-yl)butan-1-one] | < 100
COCCCn1c([C@@H]2CCCN(C(=O)C[C@H](N)CNC(=O)Nc3ccc(Cl)cc3)C2)nc2ccccc21 [Compound 283, 1-((S)-2-amino-4-((R)-3-(1-(3-methoxypropyl)-1H-benzo[d]imidazol-2-yl)piperidin-1-yl)-4-oxobutyl)-3-(4-chlorophenyl)urea] | 100 to 1000
COCCCn1c([C@@H]2CCCN(C(=O)C[C@H](N)CNC(=O)Nc3cccc(Oc4ccccc4)c3)C2)nc2ccccc21 [Compound 288, 1-((S)-2-amino-4-((R)-3-(1-(3-methoxypropyl)-1H-benzo[d]imidazol-2-yl)piperidin-1-yl)-4-oxobutyl)-3-(3-phenoxyphenyl)urea] | 100 to 1000
COCCCn1c([C@@H]2CCCN(C(=O)C[C@H](N)c3cccc(C#N)c3)C2)nc2ccccc21 [Compound 85, 3-((S)-1-amino-3-((R)-3-(1-(3-methoxypropyl)-1H-benzo[d]imidazol-2-yl)piperidin-1-yl)-3-oxopropyl)benzonitrile] | > 1000
COCCCn1c([C@@H]2CCCN(C(=O)C[C@H](N)Cc3ccc4ccccc4c3)C2)nc2ccc(OC)cc21 [Compound 110, (R)-3-amino-1((R)-3-(6-methoxy-1-(3-methoxypropyl)-1H-benzo[d]imidazol-2-yl)piperidin-1-yl)-4-(naphthalen-2-yl)butan-1-one] | 100 to 1000
N[C@@H](CC(=O)N1CCCC(c2nc3ccccc3[nH]2)C1)Cc1ccc(Cl)cc1 (stereo partly drawn) [Compound 23, (3R)-1-(3-(1H-Benzo[d]imidazol-2-yl)piperidin-1-yl)-3-amino-4-(4-chlorophenyl)butan-1-one] | > 1000
COCCCn1c([C@@H]2CCCN(C(=O)C[C@H](N)Cc3ccc(Cl)cc3)C2)nc2ccccc21 [Compound 75, (R)-3-amino-4-(4-chlorophenyl)-1((R)-3-(1-(3-methoxypropyl)-1H-benzo[d]imidazol-2-yl)piperidin-1-yl)butan-1-one] | 100 to 1000
COCCCn1c(C2CCCN(C(=O)C[C@@H](N)c3ccccc3)C2)nc2ccccc21 (stereo partly drawn) [Compound 65, (3R)-3-amino-1-(3-(1-(3-methoxypropyl)-1H-benzo[d]imidazol-2-yl)piperidin-1-yl)-3-phenylpropan-1-one] | > 1000
COCCCn1c([C@@H]2CCCN(C(=O)C[C@H](N)Cc3ccc(-c4c[nH]c(=O)[nH]c4=O)cc3)C2)nc2ccccc21 [Compound 169, 5-(4-((R)-2-amino-4-((R)-3-(1-(3-methoxypropyl)-1H-benzo[d]imidazol-2-yl)piperidin-1-yl)-4-oxobutyl)phenyl)pyrimidine-2,4(1H,3H)-dione] | < 100
O=C(NC1CCCCC1)N1CCCC(c2nc3ccccc3[nH]2)C1 (centres unmarked) [Compound 10, 3-(1H-benzo[d]imidazol-2-yl)-N-cyclohexylpiperidine-1-carboxamide] | > 1000
